Results on two molecules are retold here after patent US20130345254A1, “CYCLOHEXANE SUBSTITUTED AMINO CYCLOPENTANE DERIVATIVES AS USEFUL CCR2 ANTAGONISTS” (priority 2011, published 2013).

The test concerns the target T1, human CCR2 (Homo sapiens, UniProt P41597).
T1 construct: expressed in transfected cells; host or cells: Ba/F3 cells (membrane preparation)
Kind of test: CCR2 membrane binding assay (SPA, 125I-rhMCP-1 competition). The following applies: membranes from Ba/F3 cells transfected with human CCR2; 0.03 nM 125I-rhMCP-1; 4 h room temperature. The protocol:
The radio-ligand binding assay was done using scintillation proximity assay (SPA) technology. Briefly, membranes (1 μg per assay point) from Ba/F3 cells transfected with human CCR2, and wheat germ agglutinin-coated SPA beads (80 μg per point; Amersham, Arlington Heights, Ill.), were pre-incubated for 30 min at room temperature in CCR2 buffer (50 mM HEPES (pH=7.4), 10 mM MgCl2, 10 mM NaCl, 1 mM CaCL2, 0.1% BSA, 10 μg/ml Saponin). At this point pre-bound SPA bead, membrane complex was incubated at room temperature for 4 h with varying concentrations of punitive CCR2 antagonists (in 1% DMSO, final) and 0.03 nM ^125I-rhMCP-1 in CCR2 Buffer (S.A. 2200 Ci/mmol, PerkinElmer Life and Analytical Science, Boston, Mass.; NEX332). Binding competition was measured using a 1450 Microbeta Trilux counter (Wallac, Gaithersburg, Md.). Binding constants (IC50 and slope) were calculated using GraphPad Prism software (GraphPad Software, Inc., La Jolla Calif.).

T1 sequence (P41597 whole entry): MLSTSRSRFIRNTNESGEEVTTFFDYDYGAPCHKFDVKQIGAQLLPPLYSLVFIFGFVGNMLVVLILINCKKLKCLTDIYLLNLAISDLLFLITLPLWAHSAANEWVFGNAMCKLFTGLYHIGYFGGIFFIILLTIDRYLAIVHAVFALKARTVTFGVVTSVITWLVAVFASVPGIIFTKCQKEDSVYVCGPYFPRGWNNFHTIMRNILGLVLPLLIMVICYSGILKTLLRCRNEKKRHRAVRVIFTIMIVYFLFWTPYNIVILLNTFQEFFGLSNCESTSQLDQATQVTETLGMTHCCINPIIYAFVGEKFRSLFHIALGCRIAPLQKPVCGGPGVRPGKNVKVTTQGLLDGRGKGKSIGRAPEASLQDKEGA

The term IC50 denotes the concentration needed to halve the response being measured. A higher IC50 goes with weaker potency. `CC=C1CCC(N[C@@H]2CC[C@H](C(=O)NCc3cc(C(F)(F)F)cc(C(F)(F)F)c3)C2)CC1` (some centres unmarked) [Compound 1] yielded an IC50 of 2100 nM.

Consider `CC=C1CCC(N[C@@H]2CC[C@@](C(=O)N3CCc4ncc(C(F)(F)F)cc4C3)(C(C)C)C2)CC1` (some centres unmarked) [Compound 2], for which the IC50 stood at 9 nM.
